Ki data for 19 compounds are collected here from PMC6155308 (Molecules : A Journal of Synthetic Chemistry and Natural …, 2017).

The assay addresses T1, BpsCAβ (β-carbonic anhydrase) (Burkholderia pseudomallei, UniProt Q63Y17).
T1 construct: gene BPSL0372
As to the kind of experiment: biochemical.

Molecules are shown by their SMILES.

T1 sequence (Q63Y17 1-256 limits assumed): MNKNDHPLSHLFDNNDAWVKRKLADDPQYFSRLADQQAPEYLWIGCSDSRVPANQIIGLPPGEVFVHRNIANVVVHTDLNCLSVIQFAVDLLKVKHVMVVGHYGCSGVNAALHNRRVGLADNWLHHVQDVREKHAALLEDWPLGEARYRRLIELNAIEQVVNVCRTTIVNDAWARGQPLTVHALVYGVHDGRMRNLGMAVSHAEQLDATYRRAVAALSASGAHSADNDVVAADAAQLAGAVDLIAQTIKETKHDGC

In the case of `CCN[C@H]1CN(CCCOC)S(=O)(=O)c2sc(S(N)(=O)=O)cc21` [BRZ, brinzolamide], the affinity, expressed as Ki, was 4.27 µM.
Under `Cc1ccc(-c2cc(C(F)(F)F)nn2-c2ccc(S(N)(=O)=O)cc2)cc1` [CLX, celecoxib] stands over 50 µM; under `NS(=O)(=O)c1cc(Cl)c(Cl)c(S(N)(=O)=O)c1` [DCP, dichlorophenamide], 0.529 µM.
In the case of `NS(=O)(=O)c1ccc(S(=O)(=O)Nc2cccc3c(Cl)c[nH]c23)cc1` [IND, indisulam], the Ki (usually a dissociation constant, usually derived from enzyme kinetics or from competition with a known ligand) amounted to 4.37 µM.
In the case of `CC(=O)N=c1sc(S(N)(=O)=O)nn1C` [MZA, methazolamide], the Ki worked out at 0.186 µM.
Under `CC1(C)O[C@@H]2[C@@H](CO[C@@]3(COS(N)(=O)=O)OC(C)(C)O[C@@H]23)O1` [TPM, topiramate] stands over 50 µM; under `NS(=O)(=O)Cc1noc2ccccc12` [ZNS, zonisamide], 4.06 µM; under `Nc1cccc(S(N)(=O)=O)c1` [compound 1, metanilamide], over 50 µM.
Consider `Nc1ccc(S(N)(=O)=O)cc1` [compound 2, sulfanilamide], for which the affinity corresponds to a Ki of 3.89 µM. This counts as single-digit micromolar.
Turning to `NS(=O)(=O)c1cccc(S(N)(=O)=O)c1` [compound 3, 3], the Ki was determined as 3.17 µM.
For the compound `Cc1ccc(S(N)(=O)=O)cc1` [compound 4, 4], the Ki was over 50 µM.
To `NCc1ccc(S(N)(=O)=O)cc1` [compound 5, 5] belongs 3.9 µM.
`Nc1ccc(S(N)(=O)=O)cc1F` [compound 7, 7] yielded an inhibition constant (Ki) of over 50 µM.
Under `Nc1ccc(S(N)(=O)=O)cc1Cl` [compound 8, 8] stands over 50 µM; under `Nc1ccc(S(N)(=O)=O)cc1Br` [compound 9, 9], over 50 µM.
Under `NS(=O)(=O)c1cc(Cl)cc(Cl)c1O` [compound 10, 10] stands 4.1 µM; under `Nc1nnc(S(N)(=O)=O)s1` [compound 13, deacetylated derivative of AAZ], 3.06 µM; under `Cn1nc(S(N)(=O)=O)sc1=N` [compound 14, deacetylated derivative of MZA], 2.5 µM.
In turn, `Nc1ccc(S(=O)(=O)Nc2nnc(S(N)(=O)=O)s2)cc1` [compound 20, aminobenzolamide] gave a Ki of 0.266 µM.
